# Measurements as given in patent US11147272B2, “Pyridone compounds and agricultural and horticultural fungicides comprising the same as active ingredients” (MITSUI CHEMICALS AGRO, INC., priority 2017, dated 2021).
# Tests used:
# [1] = tested on: Magnaporthe grisea; test: whole plant or invertebrate; type: in vivo; details: Blast on rice; control value class
# [2] = tested on: Alternaia brassicicola; test: Test Example C: Alternaria sooty spot on cabbage; type: in vivo; details: Alternaria sooty spot on cabbage; control value class
# Description: Seeds of a test plant (cabbage variety: Shikidori) were planted and cultivated until the cotyledons extended.
# <Control Value> Control value=100{1−(n/3)}
# [3] = tested on: Puccinia recondita; test: Test Example E: Brown rust on wheat; type: in vivo; details: Brown rust on wheat; control value class
# [4] = tested on: Phytophthora infestans; test: whole plant or invertebrate; type: in vivo; details: Late blight on tomato; control value class
# [5] = tested on: Botrytis cinerea; test: Test Example B: Gray mold on tomato; details: Gray mold on tomato; control value class
# [6] = tested on: Plasmopara viticola; test: Test Example G: Downy mildew on vine; details: Downy mildew on vine; 250 ppm spray, 7 to 10 days after inoculation
# [7] = tested on: Colletotrichum orbiculare; test: Test Example H: Anthracnose on cucumber; details: Anthracnose on cucumber; 250 ppm spray, 6 to 10 days after inoculation
# [8] = tested on: Blumeria graminis f. sp. hordei; test: Test Example D: Powdery mildew on barley; details: Powdery mildew on barley; control value class
SMILES,Test A control value [1],Test C control value [2],Test E control value [3],Test F control value [4],Test B control value [5],Test G control value [6],Test H control value [7],Test D control value [8]
CCn1c(-c2c(F)cc(F)cc2F)c(COc2ccc(Cl)cc2)cc(Cl)c1=O [compound 311],L (50% or less control value),L (50% or less control value),H (more than 50% control value),L (50% or less control value),L (50% or less control value),L (50% or less control value),L (50% or less control value),L (50% or less control value)
CCC1=C(c2ccc(F)cc2Cl)N(C)C(=O)CC1 [compound 312],L (50% or less control value),H (more than 50% control value),L (50% or less control value),L (50% or less control value),L (50% or less control value),L (50% or less control value),L (50% or less control value),L (50% or less control value)
CCC1=C(c2ccc(F)cc2Cl)N(C)C(=S)CC1 [compound 313],L (50% or less control value),L (50% or less control value),L (50% or less control value),L (50% or less control value),L (50% or less control value),H (more than 50% control value),L (50% or less control value),L (50% or less control value)
CCc1ccc(=O)n(C)c1-c1ccc(F)cc1Cl [compound 314],L (50% or less control value),L (50% or less control value),H (more than 50% control value),L (50% or less control value),L (50% or less control value),L (50% or less control value),L (50% or less control value),H (more than 50% control value)
CCCC1=C(c2ccc(F)cc2Cl)N(CC)C(=S)CC1 [compound 315],L (50% or less control value),L (50% or less control value),L (50% or less control value),L (50% or less control value),L (50% or less control value),L (50% or less control value),L (50% or less control value),H (more than 50% control value)
CCc1cc(Cl)c(=O)n(C)c1-c1ccc(F)cc1Cl [compound 316],L (50% or less control value),H (more than 50% control value),H (more than 50% control value),H (more than 50% control value),H (more than 50% control value),H (more than 50% control value),H (more than 50% control value),L (50% or less control value)
CCc1cc(Br)c(=O)n(C)c1-c1ccc(F)cc1Cl [compound 317],L (50% or less control value),H (more than 50% control value),H (more than 50% control value),H (more than 50% control value),H (more than 50% control value),H (more than 50% control value),H (more than 50% control value),L (50% or less control value)
CCCc1ccc(=O)n(CC)c1-c1ccc(OC)cc1Cl [compound 318],L (50% or less control value),H (more than 50% control value),H (more than 50% control value),H (more than 50% control value),H (more than 50% control value),L (50% or less control value),H (more than 50% control value),H (more than 50% control value)
CCc1ccc(=O)n(CC)c1-c1ccc(OC)cc1Cl [compound 319],L (50% or less control value),H (more than 50% control value),H (more than 50% control value),L (50% or less control value),H (more than 50% control value),L (50% or less control value),H (more than 50% control value),H (more than 50% control value)
CCCc1cc(Cl)c(=O)n(CC)c1-c1ccc(OC)cc1Cl [compound 320],H (more than 50% control value),H (more than 50% control value),H (more than 50% control value),H (more than 50% control value),H (more than 50% control value),H (more than 50% control value),H (more than 50% control value),H (more than 50% control value)
CCCc1cc(Br)c(=O)n(CC)c1-c1ccc(OC)cc1Cl [compound 321],H (more than 50% control value),H (more than 50% control value),H (more than 50% control value),L (50% or less control value),H (more than 50% control value),H (more than 50% control value),H (more than 50% control value),H (more than 50% control value)
CCc1ccc(=O)n(C)c1-c1ccc(OC)cc1Cl [compound 322],L (50% or less control value),L (50% or less control value),H (more than 50% control value),L (50% or less control value),H (more than 50% control value),L (50% or less control value),H (more than 50% control value),L (50% or less control value)
CCCC1=C(c2ccc(F)cc2Cl)N(C)C(=O)CC1 [compound 323],L (50% or less control value),L (50% or less control value),L (50% or less control value),L (50% or less control value),H (more than 50% control value),L (50% or less control value),L (50% or less control value),L (50% or less control value)
CCc1cc(Cl)c(=O)n(C)c1-c1ccc(OC)cc1Cl [compound 324],L (50% or less control value),H (more than 50% control value),H (more than 50% control value),L (50% or less control value),H (more than 50% control value),H (more than 50% control value),H (more than 50% control value),L (50% or less control value)
CCc1cc(Br)c(=O)n(C)c1-c1ccc(OC)cc1Cl [compound 325],L (50% or less control value),H (more than 50% control value),H (more than 50% control value),L (50% or less control value),H (more than 50% control value),H (more than 50% control value),H (more than 50% control value),L (50% or less control value)
